Test results published in EP1382597A2, “Steroid receptor modulator compounds and methods” (LIGAND PHARMACEUTICALS, INC., priority 1994, dated 1996).
Like-named read-outs stand apart in the source and are kept apart here.

What was measured:
AR [1] = target: T1, AR (Homo sapiens, UniProt P10275); assay: Co-transfection assay, AR agonist activity; assay type: cell-based; details: CV-1 cells
T1 construct: expressed in transfected cells; host or cells: CV-1 cells, transient transfection

AR [2] = target: T1, AR; assay: Co-transfection assay, AR antagonist activity; assay type: cell-based
human AR = assay: AR whole cell binding assay (COS-1 cells); details: whole COS-1 cells, competition with 1 nM 3H-DHT, three hours at 37°C
human PR-B [3] = target: T2, human PR-B (Homo sapiens, UniProt P06401); assay: Co-transfection assay, PR agonist activity; assay type: cell-based; details: for Emax: CV-1, read-out: PR Agonist CV-1 Cells Efficacy (%); for PR Agonist CV-1 Cells Efficacy (%): percent maximal response relative to reference agonist progesterone;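 for all read-outs here: CV-1 cells (African green monkey kidney) co-transfected with receptor plasmid and hormone-responsive firefly luciferase reporter, agonism read as compound-dependent rise in luciferase signal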
T2 construct: expressed in transfected cells; host or cells: CV-1 cells (African green monkey kidney fibroblasts), transient transfection
T2 sequence (P06401 1-933): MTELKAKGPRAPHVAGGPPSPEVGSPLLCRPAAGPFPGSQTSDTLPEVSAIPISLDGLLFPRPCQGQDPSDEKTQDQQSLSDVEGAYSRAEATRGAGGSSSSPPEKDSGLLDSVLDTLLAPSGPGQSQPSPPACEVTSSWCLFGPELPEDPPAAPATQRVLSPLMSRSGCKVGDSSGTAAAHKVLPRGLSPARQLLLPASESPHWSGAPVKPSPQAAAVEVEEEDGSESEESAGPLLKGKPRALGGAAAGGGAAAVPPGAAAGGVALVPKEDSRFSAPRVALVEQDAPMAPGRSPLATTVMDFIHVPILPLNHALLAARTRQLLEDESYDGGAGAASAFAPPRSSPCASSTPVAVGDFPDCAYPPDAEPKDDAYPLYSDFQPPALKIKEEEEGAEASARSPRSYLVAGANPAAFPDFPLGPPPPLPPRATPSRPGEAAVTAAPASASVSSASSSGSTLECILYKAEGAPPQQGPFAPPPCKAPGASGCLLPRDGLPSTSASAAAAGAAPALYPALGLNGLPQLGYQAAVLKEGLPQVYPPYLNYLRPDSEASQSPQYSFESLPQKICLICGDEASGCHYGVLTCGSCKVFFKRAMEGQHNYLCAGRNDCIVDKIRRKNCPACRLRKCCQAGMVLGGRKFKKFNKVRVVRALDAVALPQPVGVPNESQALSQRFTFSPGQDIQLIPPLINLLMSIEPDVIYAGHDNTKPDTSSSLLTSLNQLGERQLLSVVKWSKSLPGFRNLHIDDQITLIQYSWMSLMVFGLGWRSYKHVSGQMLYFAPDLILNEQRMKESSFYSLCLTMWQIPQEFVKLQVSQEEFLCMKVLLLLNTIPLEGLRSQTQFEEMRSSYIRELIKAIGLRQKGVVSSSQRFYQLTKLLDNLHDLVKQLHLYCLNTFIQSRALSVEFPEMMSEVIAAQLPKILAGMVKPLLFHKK

human PR-B [4] = target: T2, human PR-B; assay: Co-transfection assay, PR antagonist activity; assay type: cell-based; details: for Emax: CV-1, read-out: PR Antagonist CV-1 Cells Efficacy (%);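 for all read-outs here: monkey kidney fibroblasts co-transfected with receptor expression plasmid and hormone-responsive luciferase reporter, antagonism read as reduced luciferase signal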
ER [5] = target: T3, ER (Homo sapiens, UniProt P03372); assay: Co-transfection assay, ER antagonist activity; assay type: cell-based
T3 construct: expressed in transfected cells; host or cells: CV-1 cells, transient transfection, with MTV-ERE5-LUC reporter

GR = target: T4, GR (Homo sapiens, UniProt P04150); assay: Co-transfection assay, GR antagonist activity; assay type: cell-based
T4 construct: expressed in transfected cells; host or cells: CV-1 cells, transient transfection
T4 sequence (P04150 1-777): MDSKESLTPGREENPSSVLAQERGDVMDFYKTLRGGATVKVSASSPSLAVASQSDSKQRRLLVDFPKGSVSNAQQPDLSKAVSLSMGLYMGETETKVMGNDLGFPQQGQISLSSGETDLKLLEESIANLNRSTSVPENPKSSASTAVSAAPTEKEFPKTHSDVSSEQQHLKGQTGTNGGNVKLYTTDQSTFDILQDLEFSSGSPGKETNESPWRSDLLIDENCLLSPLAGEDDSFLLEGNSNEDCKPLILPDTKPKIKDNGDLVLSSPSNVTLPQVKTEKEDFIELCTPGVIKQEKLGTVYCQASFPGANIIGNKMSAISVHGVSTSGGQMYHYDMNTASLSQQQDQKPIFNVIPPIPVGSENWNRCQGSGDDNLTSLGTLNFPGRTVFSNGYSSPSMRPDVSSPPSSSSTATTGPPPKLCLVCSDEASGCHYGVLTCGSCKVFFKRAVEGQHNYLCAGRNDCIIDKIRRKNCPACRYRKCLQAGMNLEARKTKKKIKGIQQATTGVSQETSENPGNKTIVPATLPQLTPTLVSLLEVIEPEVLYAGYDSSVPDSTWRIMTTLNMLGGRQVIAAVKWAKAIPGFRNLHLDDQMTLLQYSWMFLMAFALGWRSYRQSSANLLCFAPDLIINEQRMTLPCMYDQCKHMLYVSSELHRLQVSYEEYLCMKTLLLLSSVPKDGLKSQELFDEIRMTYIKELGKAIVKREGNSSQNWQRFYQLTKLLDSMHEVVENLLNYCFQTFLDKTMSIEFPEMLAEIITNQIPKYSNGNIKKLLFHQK

MR = target: T5, MR (Homo sapiens, UniProt P08235); assay: Co-transfection assay, MR antagonist activity; assay type: cell-based
T5 construct: expressed in transfected cells; host or cells: CV-1 cells, transient transfection
T5 sequence (P08235 1-984): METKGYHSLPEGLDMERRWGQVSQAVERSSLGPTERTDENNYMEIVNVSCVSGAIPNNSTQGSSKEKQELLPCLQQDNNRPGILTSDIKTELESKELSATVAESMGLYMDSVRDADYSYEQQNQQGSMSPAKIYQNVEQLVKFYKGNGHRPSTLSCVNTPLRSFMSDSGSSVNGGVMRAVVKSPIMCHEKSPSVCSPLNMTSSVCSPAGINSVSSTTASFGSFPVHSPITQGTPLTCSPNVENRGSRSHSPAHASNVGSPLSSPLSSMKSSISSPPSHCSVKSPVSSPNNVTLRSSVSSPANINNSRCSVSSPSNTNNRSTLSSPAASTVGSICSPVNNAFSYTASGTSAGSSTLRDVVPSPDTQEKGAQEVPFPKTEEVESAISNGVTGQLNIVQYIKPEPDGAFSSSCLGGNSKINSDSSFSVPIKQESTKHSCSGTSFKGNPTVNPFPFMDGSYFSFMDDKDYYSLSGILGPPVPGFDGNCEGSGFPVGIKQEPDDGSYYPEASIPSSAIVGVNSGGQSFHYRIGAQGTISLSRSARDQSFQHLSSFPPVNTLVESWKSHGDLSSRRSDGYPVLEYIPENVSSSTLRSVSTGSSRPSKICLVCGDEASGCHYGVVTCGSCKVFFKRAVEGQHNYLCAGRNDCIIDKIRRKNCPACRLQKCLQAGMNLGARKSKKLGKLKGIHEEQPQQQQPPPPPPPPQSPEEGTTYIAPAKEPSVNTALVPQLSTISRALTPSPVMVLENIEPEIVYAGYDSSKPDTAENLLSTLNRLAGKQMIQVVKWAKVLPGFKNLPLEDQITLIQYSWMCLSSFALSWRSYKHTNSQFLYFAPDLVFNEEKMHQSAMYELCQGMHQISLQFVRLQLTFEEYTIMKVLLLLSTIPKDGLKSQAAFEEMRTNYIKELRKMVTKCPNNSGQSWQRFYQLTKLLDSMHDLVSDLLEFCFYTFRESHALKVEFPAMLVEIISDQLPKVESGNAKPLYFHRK

PR [6] = assay: Implantation assay (antiprogestin activity); assay type: in vivo, mice (ICR strain)
Experimental: Mating was assumed to have taken place at 02.00 h, time 0.
Compound 150 was dissolved in sesame oil (50 mg/mL) and kept at room temperature before use. […] Control animals received an equivuivalent volume of the control vehicle, sesame oil, alone.
The animals were sacrificed, and autopsies were carried out at Day 8 of pregnancy, and numbers of implantation sites counted and recorded, and are shown in Table 7 below. Each group consisted of between 5 and 7 animals.

[7] = target: T6, human progesterone receptor A form (PR-A) (Homo sapiens, UniProt P06401); assay: PR binding assay
T6 sequence (P06401 1-933): T2 sequence (P06401 1-933)

ER [8] = target: T3, ER; assay: Co-transfection assay, ER agonist activity; assay type: cell-based
PR [9] = assay: Uterine wet weight assay (PR agonist effectiveness); assay type: in vivo, Sprague-Dawely rats
Description: J. Obstet. […] R.I. Dorfman, Academic Press, New York, New York, pp101-130 (1969), the disclosures of which are herein incorporated by reference. Four to five week old, ovariectomized, Sprague-Dawely rats (Harlan-Sprague-Dawely, Indianapolis, IN) were obtained 1 week after surgery and allowed to acclimate for an additional week after shipment.

[10] = CV-1 cells, agonist potency = EC50, read-out: PR Agonist CV-1 Cells Potency
[11] = competition with [3H] progesterone, baculovirus extract, 4°C, 16 hours, read-out: PR Binding Ki

T1 sequence (P10275 whole entry): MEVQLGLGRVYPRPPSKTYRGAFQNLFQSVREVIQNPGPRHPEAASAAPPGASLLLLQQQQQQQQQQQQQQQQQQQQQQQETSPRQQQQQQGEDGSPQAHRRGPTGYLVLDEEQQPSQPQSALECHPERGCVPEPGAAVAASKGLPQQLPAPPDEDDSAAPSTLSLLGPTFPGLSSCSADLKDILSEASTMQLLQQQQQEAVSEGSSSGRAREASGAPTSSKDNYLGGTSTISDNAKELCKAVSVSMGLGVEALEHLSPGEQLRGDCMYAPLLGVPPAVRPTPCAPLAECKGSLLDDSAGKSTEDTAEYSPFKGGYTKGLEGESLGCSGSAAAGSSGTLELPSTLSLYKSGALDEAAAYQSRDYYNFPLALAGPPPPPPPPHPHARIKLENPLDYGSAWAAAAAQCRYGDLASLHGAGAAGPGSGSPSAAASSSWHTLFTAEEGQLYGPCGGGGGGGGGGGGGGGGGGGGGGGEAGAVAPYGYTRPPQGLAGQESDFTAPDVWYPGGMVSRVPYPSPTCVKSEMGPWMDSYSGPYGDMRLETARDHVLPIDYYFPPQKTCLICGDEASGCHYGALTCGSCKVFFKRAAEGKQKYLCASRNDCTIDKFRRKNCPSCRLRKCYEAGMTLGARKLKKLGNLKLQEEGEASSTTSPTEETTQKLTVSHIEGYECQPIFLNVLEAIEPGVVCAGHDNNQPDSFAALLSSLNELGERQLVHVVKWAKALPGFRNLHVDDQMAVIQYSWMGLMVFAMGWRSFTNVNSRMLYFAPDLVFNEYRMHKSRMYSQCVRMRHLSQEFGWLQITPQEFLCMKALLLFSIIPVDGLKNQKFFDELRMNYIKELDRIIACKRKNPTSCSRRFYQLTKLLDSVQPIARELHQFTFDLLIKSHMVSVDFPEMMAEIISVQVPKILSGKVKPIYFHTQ
T3 sequence (P03372 whole entry): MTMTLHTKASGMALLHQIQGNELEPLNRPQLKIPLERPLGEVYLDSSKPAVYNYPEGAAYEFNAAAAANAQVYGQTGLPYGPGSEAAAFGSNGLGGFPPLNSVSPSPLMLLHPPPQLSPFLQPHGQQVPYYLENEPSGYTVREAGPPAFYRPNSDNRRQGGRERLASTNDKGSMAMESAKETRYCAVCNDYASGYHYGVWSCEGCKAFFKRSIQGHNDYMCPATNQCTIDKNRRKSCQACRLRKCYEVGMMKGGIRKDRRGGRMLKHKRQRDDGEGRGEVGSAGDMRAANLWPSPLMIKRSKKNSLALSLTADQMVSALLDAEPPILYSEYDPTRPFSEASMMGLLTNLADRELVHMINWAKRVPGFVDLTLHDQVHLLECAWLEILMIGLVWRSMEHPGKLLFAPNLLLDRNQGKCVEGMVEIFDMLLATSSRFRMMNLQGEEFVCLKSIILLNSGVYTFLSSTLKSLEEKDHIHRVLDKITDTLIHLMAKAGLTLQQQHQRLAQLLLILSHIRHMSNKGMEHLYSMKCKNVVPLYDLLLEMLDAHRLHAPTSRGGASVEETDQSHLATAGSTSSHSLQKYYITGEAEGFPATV

8-(4-Chlorobenzoyl)-5-trifluoromethyl-7-pyridono[5,6-e]indoline [Compound 420]
EC50 (AR [1]; agonist potency = EC50): 2100 nM
AR Agonist CV-1 Cells Efficacy (%) (AR [1]; relative to reference agonist DHT): 40%
IC50 (AR [2]; CV-1 cells, antagonist potency = IC50, DHT at its EC50, read-out: AR Antagonist CV-1 Cells Potency): 32 nM
AR Antagonist CV-1 Cells Efficacy (%) (AR [2]; CV-1 cells, percent maximal inhibition, DHT at its EC50): 80%
Ki (human AR): 346 nM

CC1=CC(C)(C)Nc2ccc(-c3cccc(C#N)c3)cc21 [Compound 150, 6-(3-Cyanophenyl)-1,2-dihydro-2,2,4-trimethylquinoline]
Emax (human PR-B [3]): 24%
Emax (human PR-B [4]): 91%
IC50 (AR [2]): 140 nM
IC50 (ER [5]): > 10000 nM
IC50 (GR): 2700 nM
IC50 (MR): 1900 nM
Percent Pregnancy Rate (PR [6]; 5.0 mg/day oral, days 2 to 4 of pregnancy, mice): 0
effect on pregnancy rate with simultaneous PR agonist (PR [6]; simultaneous injection of R5020 (promegestone) at 1.0 mg per day): reversed to the control level

(R/S-4l,5l)-3-Benzenzylidene-5-(4-chlorophenyl)-1,2,3,4-tetrahydro-2,2,4-trimethyl-5H-chromeno[3,4-f]quinoline [Compound 401]
EC50 (human PR-B [3]; [10]): 600 nM
PR Agonist CV-1 Cells Efficacy (%) (human PR-B [3]; CV-1 cells): 43%
IC50 (human PR-B [4]; CV-1 cells, antagonist potency = IC50, progesterone at its EC50, read-out: PR Antagonist CV-1 Cells Potency): > 10000 nM
PR Antagonist CV-1 Cells Efficacy (%) (human PR-B [4]; CV-1 cells, percent maximal inhibition, progesterone at its EC50): na (na = not active (i.e. efficacy of <20 and potency of >10,000))
Ki [7, 11]: 150 nM

CC1=CC(C)(C)Nc2ccc(-c3cccc(F)c3F)cc21 [Compound 152, 6-(2,3-Difluorophenyl)-1,2-dihydro-2,2,4-trimethylquinoline]
EC50 (human PR-B [3]): > 10000 nM
Emax (human PR-B [3]): < 20%
IC50 (human PR-B [4]): 130 nM
Emax (human PR-B [4]): 82%
Ki [7]: 53 nM

8-Bromo-1,2-dihydro-2,2,4-trimethylindeno[1,2-g]quinoline [Compound 117]
EC50 (human PR-B [3]; [10]): > 10000 nM
PR Agonist CV-1 Cells Efficacy (%) (human PR-B [3]; CV-1 cells): na (na = not active (i.e. efficacy of <20 and potency of >10,000))
Ki [7, 11]: > 10000 nM

CC1=CC(C)(C)Nc2ccc3c(c21)C(c1ccc(Cl)cc1)Oc1ccccc1-3 (racemic) [Compound 163, (R/S)-5-(4-Chlorophenyl)-1,2-dihydro-2,2,4-trimethyl-5H-chromeno[3,4-f]quinoline]
Emax (human PR-B [3]): 77%
Emax (human PR-B [4]): 45%
EC50 (ER [8]): > 10000 nM
IC50 (ER [5]): 2150 nM
IC50 (GR): 1330 nM
IC50 (MR): 1450 nM
Mean Uterine Wet Weight (PR [9]; 3.0 mg/rat oral once a day for three days in the presence of estrone (10 µg/day, subcutaneous)): 125 mg
effect on mean uterine wet weight (PR [9]; co-administered with estrone, dosage of 3 mg/rat): decreased by approximately half

C[C@H]1C(=O)C(C)(C)Nc2ccc3c(c21)O[C@H](c1ccccc1)c1ccccc1-3 (relative stereo) [Compound 391, (R/S-4l,6l)-1,2,3,4-Tetrahydro-2,2,4-trimethyl-6-phenyl-5H-isochromeno[3,4-f]-3-quinolinone]
EC50 (human PR-B [3]): > 10000 nM
Emax (human PR-B [3]): < 20%
IC50 (human PR-B [4]): 120 nM
Emax (human PR-B [4]): 65%
Ki [7]: 187 nM
